Measured values: patent US20230097157A1, “Bicyclic Pyridin-2-one and pyrimidin-4-one Derivatives Useful As a Factor XIa Inhibitors” (Janssen Pharmaceutica NV, priority 2021, published 2023)
Where two headings read alike, the source gives them in different places.

Experiments:
Factor XIa = Factor XIa (Homo sapiens, UniProt P03951); experiment: Factor XIa inhibition assay (FLINT) utilizing a fluorophore-quencher pair peptide substrate 5Fam-[…]-K5Tamra; assay type: biochemical; settings: kinetic (KIN) reads, read-out: FXIa KIN Inh IC50
From the text: Biological Example 1: Factor XIa Inhibition Assay Utilizing a Fluorophore-Quencher Pair Peptide Substrate A fluorescence intensity (FLINT) based assay was used to monitor inhibition of Factor XIa. The peptide substrate, 5Fam-[…]-K5Tamra (purchased from New England Peptide) was chosen based on the FXI sequence. Conversion of zymogen FXI to its activated form, FXIa, occurs by proteolytic cleavage by […] at two sites, Arg146 and Arg180. The custom peptide used in this assay was based on the Arg146 cleavage site of FXI. The peptide substrate was designed with a fluorophore-quencher pair, where the fluorescence is quenched until FXIa cleaves the 8-mer peptide after the Arg residue.
The Factor XIa FLINT assay was used with the following 5Fam-[…]-K5Tamra assay buffer: 50 mM Tris, pH 7.5, 100 mM NaCl, 5 mM CaCl2, 0.1 mg/mL BSA, 0.03% CHAPS. Assay buffer was prepared by mixing all ingredients fresh. 5Fam-[…]-K5Tamra peptide substrate was first prepared at 10 mM in 100% DMSO, then diluted to 3 mM in 100% DMSO. Assay buffer was then added directly to the 3 mM stock of substrate to prepare the 30 μM 2× working concentration (15 μM final concentration). The 2× Factor XIa stock solution was prepared by diluting 6.562 μM stock in 1× assay buffer for a […].
Test compound(s) were run in an 11-point, 3-fold serial dilution with a final top compound concentration of 100 nM. Final DMSO in assay was 2%. FXIa was preincubated with compound for 30-minutes and then substrate was added to initiate the reaction. The assay was run with kinetic (KIN) reads at 5 min intervals over 30 minutes. […] More specifically, the assay was run as follows: • 100 nL of 0.01 mM test compound was dispensed into black 384-well non-binding Greiner BioOne 784900 plate for 0.1 μM final concentration; • 5 μL of 1× assay buffer was dispensed to column 24 (low control) and 5 μL 2× Factor XIa solution was dispensed to columns 1-23 (column 23 high control); • the plate was centrifuged with a “cover” plate at 500 rpm for 1 min • the plate was pre-incubated for 30 minutes at room temperature with plate covered; • 5 μL of 2×5Fam-[…]-K5Tamra peptide substrate was dispensed into the entire plate, columns 1-24; • the plate was centrifuged with a “cover” plate at 500 rpm for 1 min; • the plate was read monitoring fluorescence intensity on the BMG PHERAStar at room temperature, using fluorescence module 485 nm/520 nm.
(§1) Percent inhibition (IC50) curves were generated per compound tested, and data was analyzed using a 4-parameter logistic fit using GeneData Screener. The relative fluorescence unit (RFU) values were normalized to percent inhibition using the following equation:
% inhibition=((HC−LC)−(compound−LC)/(HC−LC))*100 where LC−low control=mean signal of no Factor XIa or 100% inhibition of Factor XIa; HC−high control=mean signal of Factor XIa+5Fam-[…]-K5Tamra peptide substrate with DMSO only.
(§2) An 11-point dose response curve for the test compound(s) was generated using GENDATA to determine IC50 value based on the following equation:
Y=Bottom+(Top−Bottom)/(1+10^((log IC50−X)*HillSlope)) where Y is the % inhibition in the presence of X inhibitor concentration, Top=high control=mean signal of Factor XIa+5Fam-[…]-K5Tamra peptide substrate with DMSO only; Bottom=low control−mean signal of no Factor XIa or 100% inhibition of Factor XIa; HillSlope−Hill coefficient; and IC50=concentration of compound with 50% inhibition in relation to top/high control.

human plasma kallikrein = human plasma kallikrein (Homo sapiens, UniProt P03952); experiment: Kallikrein inhibition assay (FLINT) utilizing a quenched AMC peptide substrate Z-Gly-Pro-Arg-AMC; assay type: biochemical; settings: kinetic (KIN) reads, read-out: Kallikrein KIN Inh IC50
From the text: Biological Example 2: Kallikrein Inhibition Assay Utilizing a Quenched AMC Peptide Substrate A fluorescence intensity (FLINT) based assay was used to monitor inhibition of human plasma kallikrein. The peptide substrate, Z-Gly-Pro-Arg-AMC (Purchased from Bachem; Catalog #I-1150) was chosen based on its relatively low KM for kallikrein which enables running the assay at lower substrate concentrations to control background fluorescence.
The Kallikrein FLINT assay was used with the following Z-Gly-Pro-Arg-AMC assay buffer: 50 mM Tris, pH 7.5, 100 mM NaCl, 5 mM CaCl2, 0.1 mg/mL BSA, 0.03% CHAPS. Assay buffer was prepared by mixing all ingredients fresh. 2× Z-Gly-Pro-Arg-AMC peptide substrate was prepared by diluting 10 mM stock into 1× assay buffer for a 100 μM working concentration (50 μM final concentration). The 2× kallikrein stock solution was prepared by diluting 14.76 μM stock in 1× assay buffer for a 4 nM working stock solution (2 nM final concentration).
Test compound(s) were run in an 11-point, 3-fold serial dilution with a final top compound concentration of 1 μM. Final DMSO in assay was 2%. Plasma kallikrein was pre-incubated for 30-minute with compound and then 50 μM substrate was added to initiate the reaction. The assay was run with kinetic (KIN) reads at 5 min intervals over 30 minutes. The time course was linear using 2 nM kallikrein greater than 30 minutes. More specifically, the assay was run as follows: • 100 nL of 0.1 mM test compound was dispensed into black 384-well non-binding Greiner BioOne 784900 plate for 1 μM final concentration; • 5 μL of 1× assay buffer was dispensed to columns 24 (low control) and 5 μL 2× human kallikrein enzyme solution was dispensed to columns 1-23 (column 23 high control); • the plate was centrifuged with a “cover” plate at 500 rpm for 1 min • the plate was pre-incubated for 30 minutes at room temperature with plate covered; • 5 μL of 2× Z-Gly-Pro-Arg-AMC peptide substrate was dispensed into the entire plate, columns 1-24; • the plate was centrifuged with a “cover” plate at 500 rpm for 1 min; • the plate was read monitoring fluorescence intensity on the BMG PHERAStar at room temperature, using fluorescence module 340 nm/440 nm.
as §1
% inhibition=((HC−LC)−(compound−LC)/(HC−LC))*100 where LC—low control=mean signal of […] or 100% inhibition of human kallikrein enzyme; HC—high control=mean signal of […]+Z-Gly-Pro-Arg-AMC peptide substrate with DMSO only.
as §2
Y=Bottom+(Top−Bottom)/(1+10^((log IC50−X)*HillSlope)) where Y is the % inhibition in the presence of X inhibitor concentration, Top=high control=mean signal of human kallikrein enzyme+Z-Gly-Pro-Arg-AMC peptide substrate with DMSO only; Bottom=low control−mean signal of no human kallikrein enzyme or 100% inhibition of human kallikrein enzyme; HillSlope−Hill coefficient; and IC50=concentration of compound with 50% inhibition in relation to top/high control.

Sequence of Factor XIa (P03951 388-625 limits assumed): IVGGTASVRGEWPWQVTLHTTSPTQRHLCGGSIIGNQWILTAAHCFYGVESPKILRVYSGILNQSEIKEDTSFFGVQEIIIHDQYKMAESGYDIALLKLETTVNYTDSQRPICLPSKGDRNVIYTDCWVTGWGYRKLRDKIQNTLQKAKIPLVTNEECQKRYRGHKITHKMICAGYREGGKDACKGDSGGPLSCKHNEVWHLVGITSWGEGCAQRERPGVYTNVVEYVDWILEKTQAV
Sequence of Factor XIa (P03951 19-387 partner limits assumed): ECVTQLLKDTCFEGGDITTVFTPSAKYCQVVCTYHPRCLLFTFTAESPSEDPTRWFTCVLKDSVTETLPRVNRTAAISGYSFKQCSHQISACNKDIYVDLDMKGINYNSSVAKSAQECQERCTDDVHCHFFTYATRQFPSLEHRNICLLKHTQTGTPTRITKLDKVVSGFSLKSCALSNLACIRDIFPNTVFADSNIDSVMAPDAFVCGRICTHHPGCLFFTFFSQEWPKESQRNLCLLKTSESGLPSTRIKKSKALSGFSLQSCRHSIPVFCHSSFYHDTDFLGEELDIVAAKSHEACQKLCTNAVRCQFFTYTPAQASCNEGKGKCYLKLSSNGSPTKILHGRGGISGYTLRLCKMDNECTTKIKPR
Sequence of human plasma kallikrein (P03952 391-638 limits assumed): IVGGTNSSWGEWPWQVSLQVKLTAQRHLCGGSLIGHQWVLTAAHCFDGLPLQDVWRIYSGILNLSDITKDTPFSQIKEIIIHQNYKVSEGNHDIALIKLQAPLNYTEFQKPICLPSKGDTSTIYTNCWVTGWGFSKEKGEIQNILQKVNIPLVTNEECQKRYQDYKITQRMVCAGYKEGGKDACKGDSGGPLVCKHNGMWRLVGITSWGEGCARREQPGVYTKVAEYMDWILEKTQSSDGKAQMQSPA
Sequence of human plasma kallikrein (P03952 20-390 partner limits assumed): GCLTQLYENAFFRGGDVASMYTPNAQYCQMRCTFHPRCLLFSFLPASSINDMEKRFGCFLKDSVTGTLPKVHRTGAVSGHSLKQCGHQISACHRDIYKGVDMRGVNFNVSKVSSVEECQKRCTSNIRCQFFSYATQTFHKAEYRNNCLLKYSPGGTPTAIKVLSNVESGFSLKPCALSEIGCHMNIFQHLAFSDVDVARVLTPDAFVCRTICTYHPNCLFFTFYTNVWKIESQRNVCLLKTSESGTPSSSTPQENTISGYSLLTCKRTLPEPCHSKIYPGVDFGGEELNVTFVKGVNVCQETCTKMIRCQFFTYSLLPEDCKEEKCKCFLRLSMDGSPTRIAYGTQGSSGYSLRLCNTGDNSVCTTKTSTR

Row | IC50 (Factor XIa; values in nM) [nM] | IC50 (human plasma kallikrein; unit μM) [µM] | IC50 (human plasma kallikrein; values in nM) [µM] | IC50 (Factor XIa; unit μM) [nM] | Compound
1 | 0.1 | – | 0.0073 | – | C[C@H]1C[C@@H](c2[nH]c(-c3ccc(N)nc3F)nc2F)n2c1cc(-c1c(-n3cnnn3)ccc(Cl)c1F)cc2=O [Example 34, (1S,3S)-3-(2-(6-Amino-2-fluoropyridin-3-yl)-4-fluoro-1H-imidazol-5-yl)-7-(3-chloro-2-fluoro-6-(1H-tetrazol-1-yl)phenyl)-1-methyl-2,3-dihydroindolizin-5(1H)-one]
2 | 0.5 | – | 0.0395 | – | C[C@H]1C[C@@H](c2ncc(-c3ccc(N)nc3F)[nH]2)n2c1cc(-c1cc(Cl)ccc1-n1cnnn1)cc2=O [Example 29, (1S,3S)-3-[5-(6-amino-2-fluoro-3-pyridyl)-1H-imidazol-2-yl]-7-[5-chloro-2-(tetrazol-1-yl)phenyl]-1-methyl-2,3-dihydro-1H-indolizin-5-one]
3 | > 100 | > 1 | – | – | Cc1nc(N)cnc1-c1cnc([C@H]2CC(C)c3nc(-c4c(-n5cnnn5)ccc(Cl)c4F)cc(=O)n32)[nH]1 (stereo partly drawn) [Example 96, (6R)-6-(5-(5-Amino-3-methylpyrazin-2-yl)-1H-imidazol-2-yl)-2-(3-chloro-2-fluoro-6-(1H-tetrazol-1-yl)phenyl)-8-methyl-7,8-dihydropyrrolo[1,2-a]pyrimidin-4(6H)-one]
4 | 7.9 | – | 0.015 | – | COC(=O)Nc1ccc(-c2cnc([C@@H]3C[C@@H](C)c4nc(-c5c(-n6cnnn6)ccc(Cl)c5F)cc(=O)n43)[nH]2)cn1 (stereo in doubt) [Example 118, Methyl (5-(2-((6*S,8*R)-2-(3-Chloro-2-fluoro-6-(1H-tetrazol-1-yl)phenyl)-8-methyl-4-oxo-4,6,7,8-tetrahydropyrrolo[1,2-a]pyrimidin-6-yl)-1H-imidazol-5-yl)pyridin-2-yl)carbamate]
5 | > 100 | – | 0.463 | – | CC1CC(c2ncc(-c3ccnc(CO)c3F)[nH]2)n2c1nc(-c1c(-n3cnnn3)ccc(Cl)c1F)cc2=O (single isomer, unassigned) [Example 78, (6R*)-2-(3-Chloro-2-fluoro-6-(1H-tetrazol-1-yl)phenyl)-6-(5-(3-fluoro-2-(hydroxymethyl)pyridin-4-yl)-1H-imidazol-2-yl)-8-methyl-7,8-dihydropyrrolo[1,2-a]pyrimidin-4(6H)-one]

More lines, now with the values behind:

Row | Compound | IC50 (Factor XIa; values in nM) [nM] | IC50 (human plasma kallikrein; unit μM) [µM] | IC50 (human plasma kallikrein; values in nM) [µM] | IC50 (Factor XIa; unit μM) [nM]
6 | C[C@H]1C[C@H](c2ncc(-c3ccc(N)nc3Cl)[nH]2)n2c1cc(-c1c(-n3cnnn3)ccc(Cl)c1F)cc2=O (relative stereo) [Example 37, (1*S,3*R)-3-(5-(6-Amino-2-chloropyridin-3-yl)-1H-imidazol-2-yl)-7-(3-chloro-2-fluoro-6-(1H-tetrazol-1-yl)phenyl)-1-methyl-2,3-dihydroindolizin-5(1H)-one] | 283 | 7.8 | – | –
7 | COC(=O)Nc1ccc(-c2cnc([C@@H]3C[C@@H](C)c4cc(-c5c(-n6cnnn6)ccc(Cl)c5F)cc(=O)n43)[nH]2)cc1 [Example 65, Methyl(4-(2-((1R,3S)-7-(3-chloro-2-fluoro-6-(1H-tetrazol-1-yl)phenyl)-1-methyl-5-oxo-1,2,3,5-tetrahydroindolizin-3-yl)-1H-imidazol-5-yl)phenyl)carbamate] | 0.6 | – | 0.0013 | –
8 | COc1cc(-c2cnc([C@H]3C[C@@H](C)c4nc(-c5c(-n6cnnn6)ccc(Cl)c5F)cc(=O)n43)[nH]2)ccn1 (stereo in doubt) [Example 99, (6*R,8*R)-2-(3-Chloro-2-fluoro-6-(1H-tetrazol-1-yl)phenyl)-6-(5-(2-methoxypyridin-4-yl)-1H-imidazol-2-yl)-8-methyl-7,8-dihydropyrrolo[1,2-a]pyrimidin-4(6H)-one] | 8 | – | 0.0238 | –
9 | COC(=O)Nc1ccc(-c2cnc([C@@H]3C[C@H](C)c4cc(-c5c(-n6cnnn6)ccc(Cl)c5F)cc(=O)n43)[nH]2)cc1 (relative stereo) [Example 64, Methyl(4-(2-((1*S,3*S)-7-(3-chloro-2-fluoro-6-(1H-tetrazol-1-yl)phenyl)-1-methyl-5-oxo-1,2,3,5-tetrahydroindolizin-3-yl)-1H-imidazol-5-yl)phenyl)carbamate] | – | 5.4 | – | 1700
10 | C[C@@H]1C[C@H](c2ncc(-c3ccn4nccc4c3)[nH]2)n2c1cc(-c1c(-n3cnnn3)ccc(Cl)c1F)cc2=O (stereo in doubt) [Example 52, (1*R,3*R)-7-(3-Chloro-2-fluoro-6-(1H-tetrazol-1-yl)phenyl)-1-methyl-3-(5-(pyrazolo[1,5-a]pyridin-5-yl)-1H-imidazol-2-yl)-2,3-dihydroindolizin-5(1H)-one] | – | > 10 | – | 7900
11 | C[C@@H]1C[C@H](c2ncc(-c3ccnc(CN)c3)[nH]2)n2c1cc(-c1c(-n3cnnn3)ccc(Cl)c1F)cc2=O (relative stereo) [Example 38, (1*R,3*R)-3-(5-(2-(Aminomethyl)pyridin-4-yl)-1H-imidazol-2-yl)-7-(3-chloro-2-fluoro-6-(1H-tetrazol-1-yl)phenyl)-1-methyl-2,3-dihydroindolizin-5(1H)-one] | 42.9 | – | 0.539 | –
12 | C[C@@H]1C[C@@H](c2ncc(-c3ccc(N)nc3F)[nH]2)n2c1nc(-c1c(-n3cnnn3)ccc(Cl)c1F)cc2=O (relative stereo) [Example 137, (6S*,8R*)-6-(5-(6-Amino-2-fluoropyridin-3-yl)-1H-imidazol-2-yl)-2-(3-chloro-2-fluoro-6-(1H-tetrazol-1-yl)phenyl)-8-methyl-7,8-dihydropyrrolo[1,2-a]pyrimidin-4(6H)-one] | 104 | 7.2 | – | –
